Source: US9718790B2, “Triazine derivative and pharmaceutical composition having an analgesic activity comprising the same” (SHIONOGI & CO., LTD., priority 2010, dated 2017)

molecular target: human P2X3 receptor (Homo sapiens (Human), UniProt P56373); assay: Evaluation of human P2X3 receptor inhibitory activity (Fluo-3 calcium fluorescence, FDSS 3000, ATP stimulation); assay type: cell-based; conditions: C6BU-1 cells stably expressing human P2X3 receptor;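 further: stimulus was 50 nM ATP with fluorescence followed for 3 min, and the response per well was peak post-ATP fluorescence divided by the reading at measurement start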
Sequence (P56373 whole entry): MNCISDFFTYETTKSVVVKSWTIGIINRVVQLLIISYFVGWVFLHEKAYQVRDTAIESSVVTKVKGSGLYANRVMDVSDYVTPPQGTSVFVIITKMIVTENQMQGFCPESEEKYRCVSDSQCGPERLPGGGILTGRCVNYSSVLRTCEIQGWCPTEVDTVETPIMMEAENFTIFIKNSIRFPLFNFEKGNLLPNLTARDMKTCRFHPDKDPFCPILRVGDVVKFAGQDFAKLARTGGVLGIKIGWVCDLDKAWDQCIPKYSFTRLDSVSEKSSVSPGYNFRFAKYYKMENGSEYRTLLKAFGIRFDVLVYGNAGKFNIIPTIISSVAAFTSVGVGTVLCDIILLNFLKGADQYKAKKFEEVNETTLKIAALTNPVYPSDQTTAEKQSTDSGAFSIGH

Compound	IC50 [nM]
Cc1[nH]c2ccc(/N=c3\[nH]c(=O)n(CCC(=O)O)c(=O)n3Cc3ccc(Cl)cc3)cc2c1C [Compound I-1950]	29
CCc1nc2ccc(/N=c3\[nH]c(=O)n(C[C@H](C)C(=O)O)c(=O)n3Cc3ccc(Cl)cc3)cc2o1 [Compound I-1382]	257
COC(=O)[C@H](C)[C@H](C)n1c(=O)[nH]/c(=N\c2ccc(Oc3ccc(C)nc3)cc2)n(Cc2ccc(Cl)cc2)c1=O [Compound I-1375]	5
Cc1ccc(Cn2c(=O)n(CC(C)(C)C(=O)O)c(=O)[nH]/c2=N\c2cccc(C(F)(F)F)c2)cc1 [Compound I-1271]	32
Cc1ccc(Cn2c(=O)n([C@H](C)[C@H](C)C(=O)O)c(=O)[nH]/c2=N\c2ccc3nc(C)sc3c2)cc1 [Compound I-1468]	10
COC(=O)[C@H](C)[C@H](C)n1c(=O)[nH]/c(=N\c2ccc(OCC(C)C)cc2)n(Cc2ccc(Cl)cc2)c1=O [Compound I-1329]	49
COC(=O)[C@@H](C)Cn1c(=O)[nH]/c(=N\c2ccc(CC(C)C)c(OC)c2)n(Cc2ccc(Cl)cc2)c1=O [Compound I-1247]	28
CC[C@@H](CC(=O)OC)n1c(=O)[nH]/c(=N\c2ccc(OC(C)C)c(C)c2)n(Cc2ccc(Cl)cc2)c1=O [Compound I-0782]	192
O=c1[nH]/c(=N\c2ccc(Oc3cncc(CO)c3)cc2)n(Cc2ccc(Cl)cc2)c(=O)n1CCOC1CCCCO1 (centres unmarked) [Compound I-2077]	3
CCn1c(=O)[nH]/c(=N\c2ccc(Oc3ccc(C(=O)OC)o3)cc2)n(Cc2ccc(Cl)cc2)c1=O [Compound I-2150]	44
CCOC(=O)CCn1c(=O)[nH]/c(=N\c2ccc(OC(C)C)c(COC(C)=O)c2)n(Cc2ccc(C)cc2)c1=O [Compound I-1425]	50
C[C@@H](Oc1ccc(/N=c2\[nH]c(=O)n(CC(=O)NCCO)c(=O)n2Cc2ccc(Cl)cc2)cc1)C(F)(F)F [Compound I-1999]	28
COC(=O)[C@@H](C)Cn1c(=O)[nH]/c(=N\c2ccc(OC)c(Cl)c2)n(Cc2ccc(Cl)cc2)c1=O [Compound I-0702]	107
CC(C)Oc1ccc(/N=c2\[nH]c(=O)n(C[C@H](C)C(=O)O)c(=O)n2Cc2ccc(F)cc2)cc1 [Compound I-0639]	216
Cc1ccc(Cn2c(=O)n(CCC(=O)O)c(=O)[nH]/c2=N\c2ccc(Cl)cc2)cc1 [Compound I-2045]	975
Cc1cc(Oc2ccc(/N=c3\[nH]c(=O)n(CC(=O)NCCO)c(=O)n3Cc3ccc(Cl)cc3)cc2)ccn1 [Compound I-1928]	5
CCCc1ccc(/N=c2\[nH]c(=O)n(C[C@H](C)C(=O)O)c(=O)n2Cc2ccc(C)cc2)cc1OC [Compound I-1365]	94
Cn1c(=O)[nH]/c(=N\c2ccc(Oc3cccc(C(=O)O)c3)cc2)n(Cc2ccc(Cl)cc2)c1=O [Compound I-2064]	40
CCn1c(=O)[nH]/c(=N\c2ccc(OC3CNC=C(C(=O)OC)C3)cc2)n(Cc2ccc(Cl)cc2)c1=O (centres unmarked) [Compound I-2138]	171
COC(=O)[C@@H](C)Cn1c(=O)[nH]/c(=N\c2ccc3c(c2)CCC3)n(Cc2ccc(Cl)cc2)c1=O [Compound I-0769]	207
Cc1ccc(Cn2c(=O)n(CCC(=O)O)c(=O)[nH]/c2=N\c2ccc(Oc3ccc(C)nc3)cc2)cc1 [Compound I-1356]	48
CCn1c(=O)[nH]/c(=N\c2ccc(Oc3cccc4[nH]ncc34)c(Cl)c2)n(Cc2ccc(Cl)cc2)c1=O [Compound I-2196]	446
Cc1cc(Oc2ccc(/N=c3\[nH]c(=O)n(CC(CO)CO)c(=O)n3Cc3ccc(Cl)cc3)cc2)ccn1 [Compound I-1954]	5
CCn1c(=O)[nH]/c(=N\c2ccc(OCCc3ccccn3)cc2)n(Cc2ccc(Cl)cc2)c1=O [Compound I-2201]	92
CC(C)Oc1ccc(/N=c2\[nH]c(=O)n(Cc3ccc(=O)[nH]c3)c(=O)n2Cc2ccc(Cl)cc2)cc1F [Compound I-0649]	21

same assay, conditions: C6BU-1 cells stably expressing human P2X3 receptor, Fluo-3 fluorescence, FDSS 3000

Compound	IC50 [nM]
COc1ccc(Oc2ccc(/N=c3\[nH]c(=O)n(CC(CO)CO)c(=O)n3Cc3ccc(Cl)cc3)cc2)cn1 [Compound I-1843]	4
COc1ccc(Oc2ccc(/N=c3\[nH]c(=O)n(CCO)c(=O)n3Cc3ccc(Cl)cc3)cc2)cn1 [Compound I-1732]	11
CCOC(=O)C1(Cn2c(=O)[nH]/c(=N\c3ccc(OC(C)C)cc3)n(Cc3ccc(Cl)cc3)c2=O)CC1 [Compound I-0987]	15
CCSc1ccc(/N=c2\[nH]c(=O)n(C[C@H](C)C(=O)OC)c(=O)n2Cc2ccc(Cl)cc2)cc1C [Compound I-1040]	128
Cn1c(=O)[nH]/c(=N\c2ccc(Oc3ccnc(O)c3)cc2)n(Cc2ccc(Cl)cc2)c1=O [Compound I-1736]	9
COc1ccc2cc(/N=c3\[nH]c(=O)n([C@@H](C)[C@@H](C)C(=O)O)c(=O)n3Cc3ccc(Cl)cc3)ccc2n1 [Compound I-1587]	38
Cc1ccc(Cn2c(=O)n(CCC(=O)O)c(=O)[nH]/c2=N\c2ccc(OC(C)C)c(Br)c2)cc1 [Compound I-1178]	17
C=Cc1ccc(Cn2c(=O)n(C[C@H](C)C(=O)O)c(=O)[nH]/c2=N\c2ccc(OC(C)C)cc2)cc1 [Compound I-1139]	52
C[C@@H](C(=O)O)[C@H](C)n1c(=O)[nH]/c(=N\c2ccc3[nH]c(S)nc3c2)n(Cc2ccc(Cl)cc2)c1=O [Compound I-1822]	332
Cc1cc(/N=c2\[nH]c(=O)n(CC3(CC(=O)O)CC3)c(=O)n2Cc2ccc(Cl)cc2)ccc1OC(C)C [Compound I-0982]	17
Cc1cc2cc(/N=c3\[nH]c(=O)n([C@@H](C)[C@@H](C)C(=O)O)c(=O)n3Cc3ccc(Cl)cc3)cc(Cl)c2o1 [Compound I-1588]	67
Cc1ccc(Cn2c(=O)n([C@@H](C)[C@@H](C)C(=O)O)c(=O)[nH]/c2=N\c2ccc(OC(C)C)c(C)c2)cc1 [Compound I-0930]	30
CCc1oc2ccc(/N=c3\[nH]c(=O)n(CC(=O)OC)c(=O)n3Cc3ccc(Cl)cc3)cc2c1C [Compound I-1564]	13
COC(=O)[C@@H](C)Cn1c(=O)[nH]/c(=N\c2ccc(C#CC3CC3)c(C)c2)n(Cc2ccc(Cl)cc2)c1=O [Compound I-1041, (S)-1-(4-chlorobenzyl)-6-(3-mehyl-4-cyclopropylethynylphenylimino)-3-(2-methoxycarbonylpropyl)-1,3,5-triazinane-2,4-dion]	101
COC(=O)[C@@H](C)[C@H](C)n1c(=O)[nH]/c(=N\c2ccc(OC(C)C)c(C)c2)n(Cc2ccc(Cl)cc2)c1=O [Compound I-1025]	134
CC[C@H](C)Oc1ccc(/N=c2\[nH]c(=O)n(C[C@H](C)C(=O)O)c(=O)n2Cc2ccc(C)cc2)cc1Cl [Compound I-1014]	17
C[C@@H](C(=O)O)[C@H](C)n1c(=O)[nH]/c(=N\c2ccc3c(c2)CCC(=O)N3)n(Cc2ccc(Cl)cc2)c1=O [Compound I-1819]	873
Cc1ccc(Cn2c(=O)n(C[C@H](C)C(=O)O)c(=O)[nH]/c2=N\c2cccc(C3CCCC3)c2)cc1 [Compound I-1110]	397
COC(=O)[C@@H](C)Cn1c(=O)[nH]/c(=N\c2ccc(OCCC(C)C)cc2)n(Cc2ccc(C)cc2)c1=O [Compound I-1049]	177
C=Cc1cc(/N=c2\[nH]c(=O)n(C[C@H](C)C(=O)O)c(=O)n2Cc2ccc(C)cc2)ccc1OC(C)C [Compound I-0910, (S)-1-(4-methylbenzyl)-6-(3-vinyl-4-isopropoxyphenylimino)-3-(2-hydroxycarbonylpropyl)-1,3,5-triazinane-2,4-dion]	8
COC(=O)[C@@H](C)Cn1c(=O)[nH]/c(=N\c2ccc(Br)cc2)n(Cc2ccc(C)cc2)c1=O [Compound I-1076]	177

same assay, conditions: human P2X3 receptor, Test Example 1

Compound	IC50 [nM]
Cc1ccc(Cn2c(=O)n(C)c(=O)[nH]/c2=N\c2ccc(Oc3ccc(C#N)cn3)cc2)cc1 [Compound I-2393]	10
Cc1cnc(Oc2ccc(/N=c3\[nH]c(=O)n(CC(N)=O)c(=O)n3Cc3ccc(Cl)cc3)cc2)s1 [Compound I-2647]	16
COC(=O)CCn1c(=O)[nH]/c(=N\c2ccc(Oc3ncns3)cc2)n(Cc2ccc(Cl)cc2)c1=O [Compound I-2652]	3
O=c1[nH]/c(=N\c2ccc(Oc3ncccn3)cc2)n(Cc2ccc(Cl)cc2)c(=O)n1CCCO [Compound I-2543]	10
O=c1[nH]/c(=N\c2ccc(Oc3ccn[nH]3)cc2)n(Cc2ccc(Cl)cc2)c(=O)n1CC(CO)CO [Compound I-2454]	35
CCn1c(=O)[nH]/c(=N\c2ccc3nc(O)sc3c2)n(Cc2ccc(Cl)cc2)c1=O [Compound I-2325]	47
CC(CO)(CO)Cn1c(=O)[nH]/c(=N\c2ccc(Oc3cccc(F)n3)cc2)n(Cc2ccc(F)cc2)c1=O [Compound I-2526]	8
COC(=O)CCn1c(=O)[nH]/c(=N\c2ccc(Oc3nc(C)ns3)cc2)n(Cc2ccc(Cl)cc2)c1=O [Compound I-2651]	2
CCc1cc2cc(/N=c3\[nH]c(=O)n(C[C@H]4COC(C)(C)O4)c(=O)n3Cc3ccc(Cl)cc3)ccc2o1 [Compound I-2314]	7
NC(=O)c1ccc(Oc2ccc(/N=c3\[nH]c(=O)n(C[C@H](O)CO)c(=O)n3Cc3ccc(Cl)cc3)cc2)cc1 [Compound I-2546]	6
CCCOc1ccc(/N=c2\[nH]c(=O)n(C[C@H](CC)C(=O)O)c(=O)n2Cc2ccc(Cl)cc2)cc1 [Compound I-0890]	32
Cc1ccc(Cn2c(=O)n(CCC(N)=O)c(=O)[nH]/c2=N\c2ccc(Oc3ncccn3)cc2)cc1 [Compound I-2566]	17
CCc1nc2ccc(/N=c3\[nH]c(=O)n(CC4(C(=O)O)CC4)c(=O)n3Cc3ccc(Cl)cc3)cc2s1 [Compound I-1553]	11
CCn1c(=O)[nH]/c(=N\c2ccc(Oc3ccnc(C(N)=O)c3)cc2)n(Cc2ccc(Cl)cn2)c1=O [Compound I-2237]	20
C[C@H](C(=O)O)n1c(=O)[nH]/c(=N\c2ccc(Oc3ccon3)cc2)n(Cc2ccc(Cl)cc2)c1=O [Compound I-2486]	381
Cc1ccc2cc(/N=c3\[nH]c(=O)n(C[C@H](C)C(=O)O)c(=O)n3Cc3ccc(Cl)cc3)ccc2n1 [Compound I-0864]	35
